Measurements from patent publication US20110288115A1, “TREATMENT OF VAGALLY-MEDIATED SPECTRUM DISORDERS” (AVMEDIS LLC, priority 2010, published 2011).

Experiments:
[1] = test system: patient with panic disorder; test: Treatment of panic disorder in a patient with a 5-HT3 receptor antagonist; assay type: in vivo; conditions: patient previously treated largely unsuccessfully with SSRIs, MAOIs, tricyclic antidepressants, benzodiazepines; 8 mg/day to 30 mg/day for 5 to 60 days
Procedure: A patient presents with symptoms including rapid heartbeat, perspiration, dizziness, dyspnea, trembling, uncontrollable fear, and hyperventilation, indicative of panic disorder. The patient has previously been treated, largely unsuccessfully, with selective serotonin reuptake inhibitors (SSRIs), monoamine oxidase inhibitors (MAOIs), tricyclic antidepressants, and benzodiazepines. The patient is treated for 5 to 60 days sequentially with ondansetron administered at a dose of 8 mg/day to 30 mg/day.

[2] = test system: patient suffering from alcohol dependence; test: Treatment of alcohol abuse in a patient with alcohol dependence; assay type: in vivo; conditions: person; 5 mg per day via nasal spray; within one month; patient report
Procedure: The patient is a person suffering from alcohol dependence and complaining of symptoms including abdominal pain, confusion, nausea and vomiting, neglecting to eat, and shaking in the morning. The patient is prescribed granisetron 5 mg per day taken via nasal spray.

SMILES	amelioration of panic disorder (severity and frequency of panic attacks and their symptoms) [1]	control over drinking [2]	improvement of symptoms (abdominal pain, confusion, nausea and vomiting, neglecting to eat, shaking in the morning) [2]
Cc1nccn1CC1CCc2c(c3ccccc3n2C)C1=O (stereo not drawn) [ondansetron, 1,2,3,9-tetrahydro-9-methyl-3-[(2-methyl-1H-imidazol-1-yl]methyl]-4H-carbazol-4-one]	long-lasting amelioration of panic disorder	–	–
CN1C2CCCC1CC(NC(=O)c1nn(C)c3ccccc13)C2 (stereo not drawn) [granisetron]	–	able to exert control over their drinking	all of the above symptoms have improved considerably
